Reference: PMC12196347, “Evaluating Triazole-Substituted Pyrrolopyrimidines as CSF1R Inhibitors” (Molecules, 2025)
Read-outs that look alike come from different tables or passages of the source.

Tests used:
AXL = target: T1, AXL (Homo sapiens, UniProt P30530); assay: Kinase panel profiling: AXL; assay type: biochemical; details: ATP equal to KM
T1 construct: purchased Thermo Fisher Scientific (Invitrogen) SelectScreen (Z'-LYTE)

LYN A = target: T2, LYN A (Homo sapiens, UniProt P07948); assay: Kinase panel profiling: LYN A; assay type: biochemical; details: ATP equal to KM
T2 construct: purchased Thermo Fisher Scientific (Invitrogen) SelectScreen (Z'-LYTE)

CDK1/cyclin B = target: T3, CDK1/cyclin B (Homo sapiens, UniProt P06493); assay: Kinase panel profiling: CDK1/cyclin B; assay type: biochemical; details: ATP equal to KM
T3 construct: purchased Thermo Fisher Scientific (Invitrogen) SelectScreen (Z'-LYTE)

PLK1 = PLK1 (Homo sapiens, UniProt P53350); assay: Kinase panel profiling: PLK1; assay type: biochemical; details: ATP equal to KM
ALK = target: T4, ALK (Homo sapiens, UniProt Q9UM73); assay: Kinase panel profiling: ALK; assay type: biochemical; details: ATP equal to KM
T4 construct: purchased Thermo Fisher Scientific (Invitrogen) SelectScreen (Z'-LYTE)

HCK = target: T5, HCK (Homo sapiens, UniProt P08631); assay: Kinase panel profiling: HCK; assay type: biochemical; details: ATP equal to KM
T5 construct: purchased Thermo Fisher Scientific (Invitrogen) SelectScreen (Z'-LYTE)

[1] = system: KIT-positive cell line GIST-T1; assay: GIST-T1 CellTiter-Glo cell viability assay; assay type: cell-based; details: Homo sapiens, GISTT1; cellular proliferation, GIST-T1, 72 h
ITK = target: T6, ITK (Homo sapiens, UniProt Q08881); assay: Kinase panel profiling: ITK; assay type: biochemical; details: ATP equal to KM
T6 construct: purchased Thermo Fisher Scientific (Invitrogen) SelectScreen (Z'-LYTE)
T6 sequence (Q08881 1-620): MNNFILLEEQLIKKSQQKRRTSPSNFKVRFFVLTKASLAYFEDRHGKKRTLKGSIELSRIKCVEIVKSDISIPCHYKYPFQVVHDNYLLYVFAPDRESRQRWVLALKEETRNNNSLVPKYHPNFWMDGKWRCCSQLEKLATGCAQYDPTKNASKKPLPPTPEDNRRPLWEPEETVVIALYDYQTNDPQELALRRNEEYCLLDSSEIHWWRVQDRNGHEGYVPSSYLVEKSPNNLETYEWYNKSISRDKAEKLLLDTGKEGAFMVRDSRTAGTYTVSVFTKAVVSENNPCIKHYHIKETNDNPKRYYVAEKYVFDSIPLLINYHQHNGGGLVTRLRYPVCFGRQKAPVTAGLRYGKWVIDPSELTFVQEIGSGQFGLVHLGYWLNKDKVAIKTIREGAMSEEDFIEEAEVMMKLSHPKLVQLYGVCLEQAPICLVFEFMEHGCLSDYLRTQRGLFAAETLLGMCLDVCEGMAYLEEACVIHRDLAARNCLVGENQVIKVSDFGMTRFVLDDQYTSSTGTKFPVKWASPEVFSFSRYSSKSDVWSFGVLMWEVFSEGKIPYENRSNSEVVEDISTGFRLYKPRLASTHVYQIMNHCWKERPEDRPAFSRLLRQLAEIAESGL

MUSK = target: T7, MUSK (Homo sapiens, UniProt O15146); assay: Kinase panel profiling: MUSK; assay type: biochemical; details: ATP equal to KM
T7 construct: purchased Thermo Fisher Scientific (Invitrogen) SelectScreen (Z'-LYTE)
T7 sequence (O15146 24-869): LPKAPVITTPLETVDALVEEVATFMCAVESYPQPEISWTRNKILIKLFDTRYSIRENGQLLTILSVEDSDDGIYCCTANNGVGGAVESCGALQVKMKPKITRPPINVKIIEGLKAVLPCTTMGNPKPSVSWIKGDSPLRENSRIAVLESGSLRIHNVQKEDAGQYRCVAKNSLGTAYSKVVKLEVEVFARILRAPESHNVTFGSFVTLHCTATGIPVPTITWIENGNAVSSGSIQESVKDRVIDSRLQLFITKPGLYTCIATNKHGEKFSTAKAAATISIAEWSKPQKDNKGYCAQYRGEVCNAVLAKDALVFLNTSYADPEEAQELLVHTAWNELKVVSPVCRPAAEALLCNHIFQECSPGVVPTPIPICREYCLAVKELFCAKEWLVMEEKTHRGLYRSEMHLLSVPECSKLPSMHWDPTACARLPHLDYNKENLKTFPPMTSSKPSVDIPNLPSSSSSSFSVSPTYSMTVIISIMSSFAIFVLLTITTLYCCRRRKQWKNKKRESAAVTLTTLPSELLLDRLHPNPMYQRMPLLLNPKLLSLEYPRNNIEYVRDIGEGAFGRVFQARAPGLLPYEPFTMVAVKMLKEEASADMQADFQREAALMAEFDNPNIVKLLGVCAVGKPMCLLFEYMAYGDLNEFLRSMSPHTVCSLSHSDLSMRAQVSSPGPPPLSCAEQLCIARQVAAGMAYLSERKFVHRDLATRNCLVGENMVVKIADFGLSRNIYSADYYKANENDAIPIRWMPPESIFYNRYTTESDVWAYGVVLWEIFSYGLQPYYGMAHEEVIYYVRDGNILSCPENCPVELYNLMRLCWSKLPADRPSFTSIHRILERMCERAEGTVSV

NEK1 = target: T8, NEK1 (Homo sapiens, UniProt Q96PY6); assay: Kinase panel profiling: NEK1; assay type: biochemical; details: ATP equal to KM
T8 construct: purchased Thermo Fisher Scientific (Invitrogen) SelectScreen (Z'-LYTE)

panel of 49 kinases = assay: Selectivity score from the kinase panel; assay type: biochemical; details: 1000 nM
TEK (Tie2) = TEK (Tie2) (Homo sapiens, UniProt Q02763); assay: Kinase panel profiling: TEK; assay type: biochemical; details: ATP equal to KM
[2] = 1000 nM test concentration, read-out: Average inhibition (%)
[3] = 1000 nM, first data point, read-out: Inhibition (%)
[4] = 1000 nM, second data point, read-out: Inhibition (%)

T3 sequence (P06493 whole entry): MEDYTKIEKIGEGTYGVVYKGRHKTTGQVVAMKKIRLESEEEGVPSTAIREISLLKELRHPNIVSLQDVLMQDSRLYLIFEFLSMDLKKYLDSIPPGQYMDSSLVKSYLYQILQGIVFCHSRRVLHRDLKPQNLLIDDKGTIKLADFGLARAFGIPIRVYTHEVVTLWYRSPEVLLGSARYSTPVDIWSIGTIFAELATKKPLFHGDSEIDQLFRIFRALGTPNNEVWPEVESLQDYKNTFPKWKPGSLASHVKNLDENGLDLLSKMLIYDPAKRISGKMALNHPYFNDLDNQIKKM
T3 sequence (P14635 whole entry partner): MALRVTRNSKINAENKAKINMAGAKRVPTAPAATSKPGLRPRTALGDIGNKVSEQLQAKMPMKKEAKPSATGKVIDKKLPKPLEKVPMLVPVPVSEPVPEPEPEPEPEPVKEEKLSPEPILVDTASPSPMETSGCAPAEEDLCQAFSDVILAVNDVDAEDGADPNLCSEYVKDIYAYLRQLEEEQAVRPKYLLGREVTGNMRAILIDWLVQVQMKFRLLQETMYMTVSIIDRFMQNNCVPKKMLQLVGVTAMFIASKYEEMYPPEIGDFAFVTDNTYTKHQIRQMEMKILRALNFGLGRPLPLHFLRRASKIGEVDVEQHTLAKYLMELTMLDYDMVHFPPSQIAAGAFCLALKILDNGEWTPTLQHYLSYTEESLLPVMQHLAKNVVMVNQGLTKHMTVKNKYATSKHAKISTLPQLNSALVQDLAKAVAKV
T4 sequence (Q9UM73 19-1620): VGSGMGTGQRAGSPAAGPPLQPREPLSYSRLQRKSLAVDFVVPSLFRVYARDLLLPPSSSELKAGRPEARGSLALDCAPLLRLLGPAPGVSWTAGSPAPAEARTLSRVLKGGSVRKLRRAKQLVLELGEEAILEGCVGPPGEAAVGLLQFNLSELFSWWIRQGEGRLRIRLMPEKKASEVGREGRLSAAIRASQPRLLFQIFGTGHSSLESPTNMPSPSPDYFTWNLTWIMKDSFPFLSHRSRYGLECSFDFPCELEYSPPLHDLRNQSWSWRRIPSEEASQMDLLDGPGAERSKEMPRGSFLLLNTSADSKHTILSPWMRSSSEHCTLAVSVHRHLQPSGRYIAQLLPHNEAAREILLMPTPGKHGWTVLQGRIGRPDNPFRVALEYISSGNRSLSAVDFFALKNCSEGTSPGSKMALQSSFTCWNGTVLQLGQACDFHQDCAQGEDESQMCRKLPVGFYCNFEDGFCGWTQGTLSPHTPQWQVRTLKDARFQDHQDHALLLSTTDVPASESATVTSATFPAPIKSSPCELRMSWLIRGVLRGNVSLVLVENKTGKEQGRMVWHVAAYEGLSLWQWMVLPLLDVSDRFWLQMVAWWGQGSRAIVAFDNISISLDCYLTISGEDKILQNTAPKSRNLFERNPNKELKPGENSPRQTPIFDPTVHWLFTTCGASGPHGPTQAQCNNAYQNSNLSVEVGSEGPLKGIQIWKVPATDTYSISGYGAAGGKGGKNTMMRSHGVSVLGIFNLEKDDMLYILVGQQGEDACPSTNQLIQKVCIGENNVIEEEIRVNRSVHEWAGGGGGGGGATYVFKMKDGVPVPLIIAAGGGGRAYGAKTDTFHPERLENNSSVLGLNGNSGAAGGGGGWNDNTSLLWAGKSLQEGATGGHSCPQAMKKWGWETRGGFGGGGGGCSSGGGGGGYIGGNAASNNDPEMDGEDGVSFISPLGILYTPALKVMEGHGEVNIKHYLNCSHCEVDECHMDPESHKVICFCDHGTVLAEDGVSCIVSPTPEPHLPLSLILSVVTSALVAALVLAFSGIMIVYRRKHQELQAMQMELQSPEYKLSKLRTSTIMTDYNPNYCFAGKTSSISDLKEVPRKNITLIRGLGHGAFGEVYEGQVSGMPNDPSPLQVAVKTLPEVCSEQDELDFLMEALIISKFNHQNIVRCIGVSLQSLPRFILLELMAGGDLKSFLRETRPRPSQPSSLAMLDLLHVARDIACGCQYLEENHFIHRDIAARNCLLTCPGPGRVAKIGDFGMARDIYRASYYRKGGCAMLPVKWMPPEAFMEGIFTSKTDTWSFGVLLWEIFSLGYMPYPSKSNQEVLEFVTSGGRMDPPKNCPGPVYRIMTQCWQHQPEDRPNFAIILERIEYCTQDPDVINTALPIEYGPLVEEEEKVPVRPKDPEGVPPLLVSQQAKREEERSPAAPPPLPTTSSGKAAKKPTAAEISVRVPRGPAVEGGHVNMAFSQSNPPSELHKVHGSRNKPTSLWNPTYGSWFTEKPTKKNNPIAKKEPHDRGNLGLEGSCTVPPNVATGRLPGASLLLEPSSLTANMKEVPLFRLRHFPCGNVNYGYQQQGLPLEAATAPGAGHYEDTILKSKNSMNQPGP
Sequence of PLK1 (P53350 whole entry): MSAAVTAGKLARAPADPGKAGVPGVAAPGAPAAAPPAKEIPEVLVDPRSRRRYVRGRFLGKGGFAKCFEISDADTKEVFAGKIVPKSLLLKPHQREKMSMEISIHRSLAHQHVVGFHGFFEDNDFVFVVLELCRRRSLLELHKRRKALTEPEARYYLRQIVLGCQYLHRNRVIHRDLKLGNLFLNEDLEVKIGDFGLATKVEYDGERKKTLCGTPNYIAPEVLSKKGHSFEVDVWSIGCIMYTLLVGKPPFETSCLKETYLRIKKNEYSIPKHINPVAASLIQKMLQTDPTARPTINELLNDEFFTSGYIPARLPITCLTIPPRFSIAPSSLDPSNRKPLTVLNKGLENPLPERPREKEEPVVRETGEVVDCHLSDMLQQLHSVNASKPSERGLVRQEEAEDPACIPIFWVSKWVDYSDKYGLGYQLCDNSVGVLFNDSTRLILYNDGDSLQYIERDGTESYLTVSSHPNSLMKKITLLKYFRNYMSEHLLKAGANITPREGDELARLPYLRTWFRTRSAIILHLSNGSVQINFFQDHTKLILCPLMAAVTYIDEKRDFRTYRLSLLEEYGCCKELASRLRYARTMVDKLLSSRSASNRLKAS
T5 sequence (P08631 whole entry): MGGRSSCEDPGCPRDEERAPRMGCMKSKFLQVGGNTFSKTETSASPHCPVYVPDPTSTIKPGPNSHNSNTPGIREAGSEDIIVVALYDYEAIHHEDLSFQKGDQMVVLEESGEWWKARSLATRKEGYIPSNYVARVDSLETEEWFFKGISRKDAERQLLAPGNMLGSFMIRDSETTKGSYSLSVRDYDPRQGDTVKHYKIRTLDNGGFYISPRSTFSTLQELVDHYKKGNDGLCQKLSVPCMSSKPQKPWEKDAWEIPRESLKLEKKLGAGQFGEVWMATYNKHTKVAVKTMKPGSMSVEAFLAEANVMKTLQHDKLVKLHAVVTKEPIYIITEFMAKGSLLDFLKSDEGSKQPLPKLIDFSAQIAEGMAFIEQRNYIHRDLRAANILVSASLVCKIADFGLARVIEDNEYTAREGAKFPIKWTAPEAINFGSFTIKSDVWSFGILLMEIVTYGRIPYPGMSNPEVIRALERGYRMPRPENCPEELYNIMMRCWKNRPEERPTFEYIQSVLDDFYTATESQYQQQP
Sequence of TEK (Tie2) (Q02763 23-1124): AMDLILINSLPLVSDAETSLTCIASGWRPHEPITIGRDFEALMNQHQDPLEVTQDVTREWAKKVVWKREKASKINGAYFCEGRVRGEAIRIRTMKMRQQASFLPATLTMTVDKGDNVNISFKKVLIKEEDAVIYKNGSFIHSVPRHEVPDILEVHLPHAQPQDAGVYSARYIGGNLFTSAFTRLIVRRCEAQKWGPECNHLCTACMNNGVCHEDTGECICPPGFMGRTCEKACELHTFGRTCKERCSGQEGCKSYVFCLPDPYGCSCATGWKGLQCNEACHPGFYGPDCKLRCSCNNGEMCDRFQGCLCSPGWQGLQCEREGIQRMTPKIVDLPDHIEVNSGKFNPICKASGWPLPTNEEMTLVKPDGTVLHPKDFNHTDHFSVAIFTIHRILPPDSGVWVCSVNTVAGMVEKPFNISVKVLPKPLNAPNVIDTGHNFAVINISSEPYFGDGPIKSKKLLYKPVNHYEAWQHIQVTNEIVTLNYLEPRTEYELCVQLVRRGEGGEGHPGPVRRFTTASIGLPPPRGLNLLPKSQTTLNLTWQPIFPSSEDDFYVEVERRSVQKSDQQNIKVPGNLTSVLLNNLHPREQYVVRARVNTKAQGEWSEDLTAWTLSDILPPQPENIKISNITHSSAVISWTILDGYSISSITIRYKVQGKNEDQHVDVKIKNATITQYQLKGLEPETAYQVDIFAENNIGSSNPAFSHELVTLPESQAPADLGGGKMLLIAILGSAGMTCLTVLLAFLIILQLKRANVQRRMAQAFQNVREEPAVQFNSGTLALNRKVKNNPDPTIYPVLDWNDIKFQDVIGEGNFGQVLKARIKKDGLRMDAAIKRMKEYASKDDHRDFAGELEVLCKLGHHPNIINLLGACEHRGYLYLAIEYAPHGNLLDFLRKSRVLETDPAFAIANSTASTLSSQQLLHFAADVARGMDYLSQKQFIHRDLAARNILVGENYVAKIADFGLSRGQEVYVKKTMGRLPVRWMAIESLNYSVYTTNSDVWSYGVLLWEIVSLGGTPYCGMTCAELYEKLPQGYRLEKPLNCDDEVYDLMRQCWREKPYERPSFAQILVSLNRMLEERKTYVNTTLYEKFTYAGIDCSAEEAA
T2 sequence (P07948 whole entry): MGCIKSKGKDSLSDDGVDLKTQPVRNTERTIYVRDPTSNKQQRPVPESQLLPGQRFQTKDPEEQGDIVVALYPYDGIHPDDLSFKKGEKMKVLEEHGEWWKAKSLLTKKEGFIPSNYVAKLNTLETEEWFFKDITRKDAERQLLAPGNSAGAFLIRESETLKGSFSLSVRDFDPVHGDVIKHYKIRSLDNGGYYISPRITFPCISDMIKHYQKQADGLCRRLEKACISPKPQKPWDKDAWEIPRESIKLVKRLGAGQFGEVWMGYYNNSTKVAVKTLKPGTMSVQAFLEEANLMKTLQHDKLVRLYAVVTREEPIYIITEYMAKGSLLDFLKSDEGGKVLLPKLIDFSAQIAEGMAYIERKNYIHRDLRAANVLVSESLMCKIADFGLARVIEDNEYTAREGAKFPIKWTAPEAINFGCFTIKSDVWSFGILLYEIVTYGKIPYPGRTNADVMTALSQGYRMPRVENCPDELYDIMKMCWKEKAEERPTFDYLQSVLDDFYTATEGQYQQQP

`Cc1cccc(CN(C)c2ncnc3[nH]c(-c4cn(Cc5cccnc5)nn4)cc23)c1` [Compound 27a, N-Methyl-N-(3-methylbenzyl)-6-(1-(pyridin-3-ylmethyl)-1H-1,2,3-triazol-4-yl)-7H-pyrrolo[2,3-d]pyrimidin-4-amine] was tested, and the inhibition at 1 µM (AXL; [2]) was 16%, the inhibition at 1 µM (AXL; [3]) was 16% and the inhibition at 1 µM (LYN A; [2]) was 66%. For the same compound, the inhibition at 1 µM (LYN A; [3]) was 66%, the inhibition at 1 µM (CDK1/cyclin B; [2]) was 27% and the inhibition at 1 µM (CDK1/cyclin B; [3]) was 24%. It also gave an inhibition at 1 µM (CDK1/cyclin B; [4]) of 29%, an inhibition at 1 µM (PLK1; [2]) of 6% and an inhibition at 1 µM (PLK1; [3]) of 5%. The inhibition at 1 µM (PLK1; [4]) was 6%, the inhibition at 1 µM (ALK; [2]) was 24% and the inhibition at 1 µM (ALK; [3]) was 24%. It also gave an inhibition at 1 µM (ALK; [4]) of 25%, an inhibition at 1 µM (HCK; [2]) of 77% and an inhibition at 1 µM (HCK; [3]) of 77%. The inhibition at 1 µM (HCK; [4]) was 76%, the IC50 [1] was greater than 30 µM and the inhibition at 1 µM (ITK; [2]) was 55%. The inhibition at 1 µM (ITK; [3]) was 58%, the inhibition at 1 µM (ITK; [4]) was 51% and the inhibition at 1 µM (MUSK; [2]) was 72%. It also gave an inhibition at 1 µM (MUSK; [3]) of 73%, an inhibition at 1 µM (MUSK; [4]) of 72% and an inhibition at 1 µM (NEK1; [2]) of 28%. The inhibition at 1 µM (NEK1; [3]) was 28%, the “selectivity score (S-score)” value (panel of 49 kinases; 30% inhibition as threshold) was 0.51 and the “selectivity score (S-score)” value (panel of 49 kinases; 50% inhibition as threshold) was 0.35. It also gave an inhibition at 1 µM (TEK (Tie2); [2]) of 42%, an inhibition at 1 µM (TEK (Tie2); [3]) of 44% and an inhibition at 1 µM (TEK (Tie2); [4]) of 40%.
